Assay results published in patent US20190060249A1 (priority 2017, published 2019).

Tests used:
ALDH3A1 = molecular target: T1, ALDH3A1 (Homo sapiens, UniProt P30838); assay: ALDH enzymatic assay (spectrophotometric), recombinant ALDH3A1; format: biochemical
T1 sequence (P30838 1-453): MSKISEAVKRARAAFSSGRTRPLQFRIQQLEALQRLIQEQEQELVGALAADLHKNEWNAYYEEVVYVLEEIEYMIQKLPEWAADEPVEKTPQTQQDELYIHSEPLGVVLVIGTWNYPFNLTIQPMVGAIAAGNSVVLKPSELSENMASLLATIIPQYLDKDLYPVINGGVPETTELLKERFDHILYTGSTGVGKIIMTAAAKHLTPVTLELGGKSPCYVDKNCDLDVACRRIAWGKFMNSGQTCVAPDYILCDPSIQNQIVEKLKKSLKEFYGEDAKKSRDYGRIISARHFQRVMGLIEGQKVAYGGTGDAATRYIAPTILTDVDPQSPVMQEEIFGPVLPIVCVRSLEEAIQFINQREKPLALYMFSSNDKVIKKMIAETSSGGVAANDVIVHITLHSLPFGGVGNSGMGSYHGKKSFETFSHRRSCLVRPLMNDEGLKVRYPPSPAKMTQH
From the text: To determine if ALDH3A1 activation is sufficient to protect salivary glands from radiation-induced dysfunction, a library of 135 traditional Chinese medicine extracts donated from Sun Ten Pharmaceutical Co., Taiwan, was screened using a spectroscopic enzyme activity assay and purified recombinant ALDH3A1. […] We then conducted high performance liquid chromatography (HPLC) fractionation of the extracts and nuclear magnetic resonance (NMR) characterization of the fractions. Based on the NMR fingerprint, we identified known constituents of similar fingerprints and purchased the commercially available compounds to test using the enzyme activity assay.
(§1) ALDH enzymatic assay: ALDH1A1, ALDH1A2, 2, 3A1, 3A2, 4A1, 5A1, 7A1 were measured as previously described using 5 μg/ml of recombinant protein (Chen, C. H., Cruz, L. A., and Mochly-Rosen, D. (2015) Pharmacological recruitment of aldehyde dehydrogenase 3A1 (ALDH3A1) to assist ALDH2 in acetaldehyde and ethanol metabolism in vivo. Proceedings of the National Academy of Sciences of the United States of America 112, 3074-3079). […] Assays were conducted in 50 mM NaPPi buffer (pH 7.4) in the presence of 2.5 mM NAD^+ and 10 mM substrate and measured in triplicate at 25° C. Dose response curve fits and EC50's were calculated using GraphPad Prism 7 software.
Activity measured in presence of compound concentrations from 6 nM to 400 μM.

[1] = human, 2 g/d oral Alda-341 for 2 weeks
From the text: Saliva and plasma samples were collected at baseline, and at the time of surgery, and normal salivary gland tissue was collected at the time of surgery.
Patients were required to be between 18 to 85 years of age, have elected to undergo surgery for recent diagnosis of parotid or submandibular gland tumor, and qualified for anesthesia. […] Patients were excluded from study participation if nursing or pregnant or diagnosed with kidney disease, end stage liver disease, metastatic cancer, or any unstable medical condition. […] Blood and saliva samples were collected at baseline and on the day of surgery. Normal and tumor salivary gland tissue were collected during surgery. Drug levels in tissue, plasma, and saliva were measured by the GCMS method described herein.
An aliquot of the heptane layer was used for analysis. […] Samples volumes of 1 μL splitless were injected with an inlet temperature of 220° C. The flow rate was constant at 1 mL/min. An Agilent DB-5MS UI column was used (30 m length, 0.250 mm inner diameter, 0.25 micron film). […] Calibration curves were linear from 4 to 8000 ng/mL.

[2] = test system: murine WT EpCAM+/CD24+-sorted cells; assay: Annexin V assay; format: cell-based, mouse; conditions: 100 μM Alda-341; Annexin V and propidium iodide, FACS
Method: Annexin V^+PI^+ are interpreted as late apoptotic cells and appear in the upper right quadrant. 5-6 replicates per group.
Cells were dissociated from matrigel, stained with Biolegend's FITC Annexin V Apoptosis Detection Kit with Propidium Iodide ([…]), and analyzed by flow cytometry. Annexin V^+PI^− cells were analyzed as early apoptotic cells and Annexin V^+PI^+ cells were analyzed as late apoptotic cells. Five to six replicates per group were assayed.

ALDH1A1 = molecular target: T2, ALDH1A1 (Homo sapiens, UniProt P00352); assay: ALDH fluorescence-coupled enzymatic assay, all-trans-retinal substrate, ALDH1A1; format: biochemical
T2 sequence (P00352 1-501): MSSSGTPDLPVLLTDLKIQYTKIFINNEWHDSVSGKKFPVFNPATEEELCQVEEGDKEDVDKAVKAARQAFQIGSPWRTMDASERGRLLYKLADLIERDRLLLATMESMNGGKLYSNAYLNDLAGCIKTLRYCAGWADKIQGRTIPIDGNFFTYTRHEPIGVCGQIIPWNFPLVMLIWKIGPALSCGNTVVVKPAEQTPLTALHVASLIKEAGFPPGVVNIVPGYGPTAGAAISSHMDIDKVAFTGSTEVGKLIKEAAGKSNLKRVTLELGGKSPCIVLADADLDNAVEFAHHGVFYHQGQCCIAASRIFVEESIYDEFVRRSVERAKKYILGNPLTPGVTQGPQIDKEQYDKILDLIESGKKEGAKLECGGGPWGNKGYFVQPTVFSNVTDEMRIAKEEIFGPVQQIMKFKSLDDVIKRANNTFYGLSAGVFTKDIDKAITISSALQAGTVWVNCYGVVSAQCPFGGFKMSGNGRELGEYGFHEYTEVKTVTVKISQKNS
Method: Assay conditions were modified from the original enzyme assay protocol above using 50 mM NaPPi buffer (pH 7.4), 2.5 mM NAD^+, 10 mM acetaldehyde or all-trans-retinal substrate with the addition of 1 U/mL diaphorase and 0.1 mM resazurin for the secondary reaction. Measurements were collected in triplicate at 25° C.

ALDH2 = molecular target: T3, ALDH2 (Homo sapiens, UniProt P05091); assay: ALDH enzymatic assay, recombinant ALDH2; format: biochemical; conditions: 5 μg/ml recombinant enzyme, 10 mM acetaldehyde, 20 μM Alda-341
T3 sequence (P05091 18-517): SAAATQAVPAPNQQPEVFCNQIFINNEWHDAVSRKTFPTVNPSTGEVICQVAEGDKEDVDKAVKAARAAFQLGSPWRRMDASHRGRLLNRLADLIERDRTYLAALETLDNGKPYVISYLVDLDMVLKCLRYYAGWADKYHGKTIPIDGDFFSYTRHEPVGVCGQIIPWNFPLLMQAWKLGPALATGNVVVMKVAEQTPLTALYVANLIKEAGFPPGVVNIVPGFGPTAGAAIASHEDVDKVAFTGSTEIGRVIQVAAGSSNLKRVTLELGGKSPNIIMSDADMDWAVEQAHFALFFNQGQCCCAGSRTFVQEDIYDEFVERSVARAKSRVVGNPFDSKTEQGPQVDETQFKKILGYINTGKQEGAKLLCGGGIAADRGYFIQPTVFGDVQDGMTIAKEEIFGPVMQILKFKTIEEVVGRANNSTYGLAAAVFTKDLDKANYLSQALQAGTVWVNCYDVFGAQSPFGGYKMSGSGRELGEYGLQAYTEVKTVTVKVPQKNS
Method: as §1

## C=C(C)[C@H]1CC=C(C)CC1 [Alda-341, D-limonene]
ALDH3A1; 10 mM acetaldehyde, propionaldehyde, benzaldehyde, cinnamaldehyde, decanal, heptaldehyde or 200 μM 4-hydroxynonenal, 100 μM compound
  substrate specificity of increase in ALDH3A1 catalytic activity: only increase the catalytic activity of ALDH3A1 towards small aldehydes like acetaldehyde and propionaldehyde but not aromatic or long-chain aldehydes
ALDH3A1; normalized to baseline activity, GraphPad Prism curve fit
  Amax: ~4.6
ALDH3A1; recombinant ALDH3A1, spectrophotometric enzyme activity assay, concentrations 6 nM to 400 μM
  EC50: ~14 µM
[1]
  average plasma drug levels after treatment: 144.3 ng/mL
[2]
  fewer early and late apoptotic cells compared to vehicle control: about 60%
ALDH1A1
  catalytic activity of all trans-retinal in ALDH1A1: did not increase
ALDH2
  catalytic activity of ALDH2: did not increase
